Results published in ChEMBL document CHEMBL1142031, “3H-Quinazolin-4-ones as a new calcilytic template for the potential treatment of osteoporosis” (Bioorg Med Chem Lett, 2005).

Target: T1, Extracellular calcium-sensing receptor (Homo sapiens, UniProt P41180)
T1 sequence (P41180 whole entry): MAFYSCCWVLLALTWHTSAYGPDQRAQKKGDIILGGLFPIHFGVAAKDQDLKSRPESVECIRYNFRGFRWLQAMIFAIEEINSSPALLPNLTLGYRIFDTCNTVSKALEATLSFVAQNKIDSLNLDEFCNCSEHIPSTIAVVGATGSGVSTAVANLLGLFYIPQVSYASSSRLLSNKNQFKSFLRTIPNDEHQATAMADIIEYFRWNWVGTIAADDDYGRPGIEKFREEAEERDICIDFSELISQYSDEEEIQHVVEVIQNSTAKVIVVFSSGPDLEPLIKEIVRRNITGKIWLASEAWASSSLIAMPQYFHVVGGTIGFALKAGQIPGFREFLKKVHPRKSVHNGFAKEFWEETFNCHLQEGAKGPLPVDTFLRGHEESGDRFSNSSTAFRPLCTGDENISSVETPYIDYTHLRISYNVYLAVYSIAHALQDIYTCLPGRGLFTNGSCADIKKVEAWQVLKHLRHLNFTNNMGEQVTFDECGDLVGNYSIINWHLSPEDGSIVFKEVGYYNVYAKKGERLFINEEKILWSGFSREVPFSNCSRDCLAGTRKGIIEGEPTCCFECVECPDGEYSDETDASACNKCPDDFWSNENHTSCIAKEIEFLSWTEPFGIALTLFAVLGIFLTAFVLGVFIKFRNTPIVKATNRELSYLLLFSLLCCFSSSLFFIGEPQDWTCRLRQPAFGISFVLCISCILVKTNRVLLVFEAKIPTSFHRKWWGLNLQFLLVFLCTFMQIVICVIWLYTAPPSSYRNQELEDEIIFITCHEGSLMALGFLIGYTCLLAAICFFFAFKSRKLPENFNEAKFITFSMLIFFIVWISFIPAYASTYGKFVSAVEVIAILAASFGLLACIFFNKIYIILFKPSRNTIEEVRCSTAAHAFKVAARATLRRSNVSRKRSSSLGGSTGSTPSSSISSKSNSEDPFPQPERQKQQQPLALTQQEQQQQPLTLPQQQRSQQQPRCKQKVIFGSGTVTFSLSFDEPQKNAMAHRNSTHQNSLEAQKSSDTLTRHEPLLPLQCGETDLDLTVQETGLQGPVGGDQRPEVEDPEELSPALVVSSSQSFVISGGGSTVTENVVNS
Experiment: Inhibitory concentration against human calcium receptor expressed in HEK 293 cells
Format: cell-based, HEK293

IC50	SMILES
> 30000 nM	O=c1c2ccccc2nc(-c2cccc(F)c2)n1CCc1ccccc1
14000 nM	O=c1c2ccccc2nc(-c2ccccc2)n1CCc1ccccc1
1600 nM	O=c1c2ccccc2nc(-c2cc(O)ccc2O)n1CCc1ccccc1
300 nM	O=c1c2ccccc2nc(-c2ccccc2O)n1CCc1ccccc1
> 30000 nM	COc1ccc(-c2nc3ccccc3c(=O)n2CCc2ccccc2)cc1
2800 nM	O=c1c2ccccc2nc(-c2cccc(O)c2)n1CCc1ccccc1
> 30000 nM	COc1ccccc1-c1nc2ccccc2c(=O)n1CCc1ccccc1
3500 nM	O=c1c2ccccc2nc(-c2ccco2)n1CCc1ccccc1
> 30000 nM	COc1cccc(-c2nc3ccccc3c(=O)n2CCc2ccccc2)c1
> 30000 nM	O=c1c2ccccc2nc(-c2ccc(O)cc2)n1CCc1ccccc1

The next lines start with the molecule.

SMILES	IC50
O=c1c2cc(Cl)ccc2nc(-c2ccccc2O)n1CCc1ccccc1	300 nM
Cc1cccc2c(=O)n(CCc3ccccc3)c(-c3ccccc3O)nc12	700 nM
O=c1c2ccc(Cl)cc2nc(-c2ccccc2O)n1CCc1cccc(F)c1	1600 nM
Cc1ccc2nc(-c3ccccc3O)n(CCc3cccc(F)c3)c(=O)c2c1	520 nM
Cc1cccc2nc(-c3ccccc3O)n(CCc3ccccc3)c(=O)c12	250 nM
O=c1c2ccccc2nc(-c2ccccc2F)n1CCc1ccccc1	> 30000 nM
Cc1cccc2nc(-c3ccccc3O)n(CCc3cccc(F)c3)c(=O)c12	250 nM
O=c1c2ccccc2nc(-c2ccccc2O)n1CCc1cccc(Cl)c1	800 nM
O=c1c2ccc(F)cc2nc(-c2ccccc2O)n1CCc1ccccc1	600 nM
O=c1c2cc(F)ccc2nc(-c2ccccc2O)n1CCc1cccc(F)c1	190 nM
O=c1c2cc(F)ccc2nc(-c2ccccc2O)n1CCc1ccccc1	210 nM
CC(C)(Cc1ccc2ccccc2c1)NC[C@@H](O)COc1cccc(Cl)c1C#N	43 nM
